Common to all, as to type: functional
Assay [1] deals with Mus musculus. The assay can be described thus: Antiinflammatory activity against Swiss mouse assessed as inhibition of TPA-induced edema at 0.5 mg/ear applied simultaneously with TPA measured after 4 hrs.
Assay [2] relates to Mus musculus. Kind of assay: Antiinflammatory activity against Swiss mouse assessed as inhibition of arachidonic acid-induced edema at 0.5 mg/ear applied 30 mins before arachidonic acid challenge measured after 1 hr.
For assay [3], the system named is Mus musculus. The assay can be described thus: Antiinflammatory activity against Swiss mouse assessed as inhibition of carrageenan-induced paw volume at 100 mg/kg, po administered 1 hr prior to carrageenan challenge measured after 1 hr. In general terms: Carrageenan injected into the paw causes an acute inflammation.
The test system of assay [4] is Mus musculus. The assay can be described thus: Antiinflammatory activity against Swiss mouse assessed as inhibition of carrageenan-induced paw volume at 100 mg/kg, po administered 1 hr prior to carrageenan challenge measured after 3 hrs.
Assay [5] has as its system Mus musculus. Kind of assay: Antiinflammatory activity against Swiss mouse assessed as inhibition of carrageenan-induced paw volume at 100 mg/kg, po administered 1 hr prior to carrageenan challenge measured after 5 hrs.
The subject of assay [6] is Mus musculus. The assay can be described thus: Antiinflammatory activity against Swiss mouse chronic dermatitis model assessed as inhibition of TPA-induced edema at 0.5 mg/ear applied twice daily for 4 days measured after 6 hrs.
The species entered for assay [7] is Mus musculus. Kind of assay: Antiinflammatory activity against Swiss mouse chronic dermatitis model assessed as inhibition of TPA-induced tissue myeloperoxidase activity at 0.5 mg/ear applied twice daily for 4 days measured after 6 hrs.

This note sets out measurements from ChEMBL document CHEMBL1141827, “A glycosyl analogue of diacylglycerol and other antiinflammatory constituents from Inula viscosa” (1999).

For the molecule `C=C1C(=O)O[C@H]2CC(=C)[C@H]3CC[C@@](C)(O)[C@@H]3C[C@H]12` [INUVISCOLIDE], the “inhibition (INH)” value in assay [1] was 90%; in assay [2], -16%.
By inhibition in vivo is commonly meant the change of the read-out against control, counted positive when it falls. `CCCCC1C(=O)N(c2ccccc2)N(c2ccccc2)C1=O` [PHENYLBUTAZONE]: the values for the inhibition in vivo at 100 mg/kg in assay [3], in assay [4] and in assay [5] were 54%, 58% and 43%, respectively.
Regarding `COc1cc(O)c2c(c1)O[C@H](c1ccc(O)c(O)c1)[C@@H](OC(C)=O)C2=O`, the “inhibition (INH)” value is given as 83% in assay [1] and -1% in assay [2].
Turning to `COc1ccc2c(c1)c(CC(=O)O)c(C)n2C(=O)c1ccc(Cl)cc1` [INDOMETHACIN], in assay [1], the “inhibition (INH)” value was determined as 91%.
Turning to `COc1cc(O)c2c(=O)c(O)c(-c3ccc(O)cc3)oc2c1` [RHAMNOCITRIN], the “inhibition (INH)” value stood at 78% in assay [1] and 6% in assay [2].
Regarding `C=C(C(=O)O)[C@@H]1CC[C@@]2(C)CCC[C@@](C)(O)[C@@H]2C1` [ILICIC ACID], the “inhibition (INH)” value in assay [1] is listed as 72%; in assay [2] it was 18%; in assay [6], 78%; in assay [7], 82%. The inhibition in vivo at 100 mg/kg was found to be 5% in assay [3], 32% in assay [4] and 30% in assay [5].
In the case of `C[C@@H]1C[C@H]2[C@@H]3CCC4=CC(=O)C=C[C@]4(C)[C@@]3(F)[C@@H](O)C[C@]2(C)[C@@]1(O)C(=O)CO` [DEXAMETHASONE], the “inhibition (INH)” value in assay [6] and in assay [7] was 92% in each case.
In the case of `COc1cc(O)c2c(c1)O[C@H](c1ccc(O)cc1)[C@@H](O)C2=O`, the “inhibition (INH)” value was 78% in assay [1] and 3% in assay [2].
Consider `O=C1CCN(c2ccccc2)N1` [PHENIDONE], for which the “inhibition (INH)” value in assay [2] is 51%.
For the molecule `CC/C=C\C/C=C\C/C=C\CCCCCCCC(=O)OC(COC(=O)CCCCCCCCCCCCCCC)CO[C@H]1O[C@@H](CO[C@H]2O[C@H](CO)[C@H](O)[C@H](O)[C@H]2O)[C@@H](O)[C@@H](O)[C@@H]1O` (some centres undefined) [INUGALACTOLIPID A], the “inhibition (INH)” value came to 48% in assay [1], 5% in assay [2], 97% in assay [6] and 84% in assay [7]. The inhibition in vivo at 100 mg/kg is -16% in assay [3], 10% in assay [4] and 5% in assay [5].
